Experimental data from patent US20230310540A1, “PEPTIDE COMPOSITIONS AND METHODS OF USE THEREOF” (priority 2020, published 2023).
Values after ≈ are worked out from the molar mass of the structure shown. Square brackets hold non-standard residues; d marks the D form. Peptide text beside a SMILES is read from it. d(hArg) = N=C(N)NCCCC[C@@H](N)C(=O)O

Assays:
Assay type in all cases: cell-based
E. coli = details: for MIC in Broth Dilution, E. coli, RBC −: absence of RBC; for MIC in Broth Dilution, E. coli, RBC − / MIC in Broth Dilution, E. coli, RBC +: Table 3; for MIC, E. coli, No RBC / MIC, E. coli, 10^9 cells/ml RBC: Table 2; for MIC in Broth Dilution, E. coli, RBC +: presence of 1×10^9 human RBC/ml; for MIC, E. coli, 10^9 cells/ml RBC: with 10^9 human RBC/ml
Description: (§1) Peptide variants of D-CONGA (SEQ ID NO: 1) were tested for activity against E. coli, K. pneumoniae, and S. aureus. Minimum Inhibitory Concentrations (MIC) were measured in 96-well plates by broth dilution. Peptides were serially diluted in buffer or in buffer containing 1×10^9 human RBC/ml. Following 1 hr. incubation, bacteria in growth media were added and the plates were incubated overnight at 37° C. Sterilized, wells were identified to determine MIC. Hemolysis was measured by incubating 1×10^8 human RBCs with serially diluted peptide for 30 minutes followed by centrifugation of the cells and measurements of the released hemoglobin in the supernatant by absorbance at 410 nm. The value for 100% hemolysis was established by treatment with the detergent Triton-X100. Toxicity was measured by incubating serially diluted peptide with WI38 human fibroblast cells in the presence of SYTOX Green, a DNA binding dye that reports on cell death by membrane permeabilization. The peptide concentration that gives 50% cytotoxicity by relative SYTOX Green fluorescence, is denoted EC50.
(§2) Antimicrobial peptides and conventional antibiotics were prepared at 5-times the final concentration needed in 0.025% acetic acid. The antibiotics were serially diluted by a factor of 2:3 horizontally across 96-well plates from Corning, 25 μL per well. One column was reserved for controls. For the assays performed in the presence of RBC, type O+ human RBCs at 0 or 2.5×10^9 cells/mL were added in 50 μL aliquots to all wells. Following a 30-minute incubation, 50 μL of TSB, inoculated with 5×10^5 CFU/mL, was added to all wells, and plates were incubated overnight at 37° C. Following overnight incubation at 37° C., the OD600 was measured (values of less than 0.1 were considered sterilized). To assess bacterial growth in the assays with RBC, the OD600 was measured after a second day inoculation with 10 μL of solution from the original plate added to 100 μL of sterile TSB followed by overnight incubation.
(§3) MIC values were reported in μM peptide against gram-negative E. coli (EC), P. aeruginosa (PA), and gram-positive S. aureus (SA). The two columns under each organism are for assays performed in the absence (−) and presence (+) of 1×10^9 human RBC/ml. “>30” means that sterilization was not observed at 30 μM, the highest concentration tested. The column marked “hemolysis” is the fractional hemolysis of 1×10^8 human RBC/ml at 100 μM peptide determined from measurements of serially diluted peptide, starting from 100 μM. The column marked “EC 50” contains the concentration of peptide that kills 50% of WI-38 human fibroblast cells assayed by entry of SYTOX™ Green DNA binding dye.

S. aureus = details: for MIC in Broth Dilution, S. Aureus, RBC −: absence of RBC; for MIC in Broth Dilution, S. Aureus, RBC − / MIC in Broth Dilution, S. Aureus, RBC +: Table 3; for MIC, S. aureus, No RBC / MIC, S. aureus, 10^9 cells/ml RBC: Table 2; for MIC in Broth Dilution, S. Aureus, RBC +: presence of 1×10^9 human RBC/ml; for MIC, S. aureus, 10^9 cells/ml RBC: with 10^9 human RBC/ml
Description: as §1, §2, §3

human RBCs = assay: Hemolysis of human RBCs
Description: as §1
Peptide was serially diluted in PBS starting at a concentration of 100 μM. The final volume of peptide in each well was 50 μL. To each well, 50 μL of RBCs in PBS at 2×10^8 cells/mL was added. As a positive lysis control, 1% triton was used. The mixtures were incubated at 37° C. for 1 hour, after which they were centrifuged at 1000 g for 5 minutes. After centrifugation, 10 μL of supernatant was transferred to 90 μL of DI H2O in a fresh 96-well plate. The absorbance of released hemoglobin at 410 nm was recorded and the fractional hemolysis was calculated based on the 100% and 0% lysis controls.
as §3

Row | SMILES | MIC in Broth Dilution, E. coli, RBC − (E. coli) | MIC, E. coli, No RBC (E. coli) | MIC in Broth Dilution, E. coli, RBC + (E. coli) | MIC, E. coli, 10^9 cells/ml RBC (E. coli) | MIC in Broth Dilution, S. Aureus, RBC − (S. aureus) | MIC, S. aureus, No RBC (S. aureus) | MIC in Broth Dilution, S. Aureus, RBC + (S. aureus) | MIC, S. aureus, 10^9 cells/ml RBC (S. aureus) | Hemolysis at 100 μM (human RBCs)
1 | CC(C)C[C@@H](NC(=O)CNC(=O)[C@@H](CCCNC(=N)N)NC(=O)[C@@H](CCCNC(=N)N)NC(=O)[C@@H](C)NC(=O)[C@@H](Cc1c[nH]c2ccccc12)NC(=O)[C@@H](CCCNC(=N)N)NC(=O)[C@H](N)CCCNC(=N)N)C(=O)N[C@H](C)C(=O)N[C@H](Cc1ccccc1)C(=O)N[C@H](C)C(=O)N[C@H](Cc1ccccc1)C(=O)N[C@H](CCCNC(=N)N)C(=O)N[C@H](CCCNC(=N)N)C(N)=O [D-CONGA-G7, rrwarrglafafrr (All D)] (H-[dR][dR][dW][dA][dR][dR]G[dL][dA][dF][dA][dF][dR][dR]-NH2) | 1.3 µM (≈ 2.36 µg/mL) | 1.3 µM (≈ 2.36 µg/mL) | 1.4 µM | 1.4 μM | 6.4 µM (≈ 11.6 µg/mL) | 6.4 µM (≈ 11.6 µg/mL) | 6.9 µM | 6.9 μM | 0.07
2 | CC(C)C[C@@H](NC(=O)[C@@H](CCCNC(=N)N)NC(=O)[C@@H](CCCNC(=N)N)NC(=O)[C@@H](C)NC(=O)[C@@H](Cc1c[nH]c2ccccc12)NC(=O)[C@@H](CCCNC(=N)N)NC(=O)[C@H](N)CCCNC(=N)N)C(=O)N[C@H](C)C(=O)N[C@H](Cc1ccccc1)C(=O)N[C@H](Cc1ccccc1)C(=O)N[C@H](CCCNC(=N)N)C(=O)N[C@H](CCCNC(=N)N)C(N)=O [D-CONGA-ΔA10, rrwarrlaffrr (All D)] (H-[dR][dR][dW][dA][dR][dR][dL][dA][dF][dF][dR][dR]-NH2) | 0.7 µM (≈ 1.18 µg/mL) | 0.7 µM (≈ 1.18 µg/mL) | 1.3 µM | 1.3 μM | 23.5 µM (≈ 39.7 µg/mL) | 24 µM (≈ 40.6 µg/mL) | 19 µM | 19 μM | 0.02
3 | CC(C)C[C@H](NC(=O)[C@H](CCCNC(=N)N)NC(=O)[C@H](CCCNC(=N)N)NC(=O)[C@H](C)NC(=O)[C@H](Cc1c[nH]c2ccccc12)NC(=O)[C@H](CCCNC(=N)N)NC(=O)[C@H](N)CCCNC(=N)N)C(=O)N[C@@H](C)C(=O)N[C@@H](Cc1ccccc1)C(=O)N[C@@H](C)C(=O)N[C@@H](Cc1ccccc1)C(=O)N[C@@H](CCCNC(=N)N)C(=O)N[C@H](CCCNC(=N)N)C(N)=O [L-CONGA-D(R1, R13)] (H-[dR]RWARRLAFAFR[dR]-NH2) | 20 µM (≈ 35.2 µg/mL) | 20 µM (≈ 35.2 µg/mL) | 26.2 µM | 26.2 μM | >30 µM | 30 µM (≈ 52.8 µg/mL) | >30 µM | 30 μM | 0.01
4 | CC(C)C[C@@H](NC(=O)[C@@H](CCCNC(=N)N)NC(=O)[C@H](CCCNC(=N)N)NC(=O)[C@@H](C)NC(=O)[C@@H](Cc1c[nH]c2ccccc12)NC(=O)[C@@H](CCCNC(=N)N)NC(=O)[C@H](N)CCCNC(=N)N)C(=O)N[C@H](C)C(=O)N[C@H](Cc1ccccc1)C(=O)N[C@@H](C)C(=O)N[C@H](Cc1ccccc1)C(=O)N[C@H](CCCNC(=N)N)C(=O)N[C@H](CCCNC(=N)N)C(N)=O [D-CONGA-L(R5, A10), rrwaRrlafAfrr] (H-[dR][dR][dW][dA]R[dR][dL][dA][dF]A[dF][dR][dR]-NH2) | 1.4 µM (≈ 2.47 µg/mL) | 1.4 µM (≈ 2.47 µg/mL) | 1.4 µM | 1.4 μM | >30 µM | 30 µM (≈ 52.8 µg/mL) | >30 µM | 30 μM | 0.04
5 | CC(C)C[C@@H](NC(=O)[C@@H](CCCNC(=N)N)NC(=O)[C@H](N)CCCNC(=N)N)C(=O)N[C@H](C)C(=O)N[C@H](Cc1ccccc1)C(=O)N[C@H](C)C(=O)N[C@H](Cc1ccccc1)C(=O)N[C@H](Cc1c[nH]c2ccccc12)C(=O)N[C@H](C)C(=O)N[C@H](CCCNC(=N)N)C(=O)N[C@H](CCCNC(=N)N)C(=O)N[C@H](CCCNC(=N)N)C(=O)N[C@H](CCCNC(=N)N)C(N)=O [D-CONGA-FLIP, rrlafafwarrrr (All D)] (H-[dR][dR][dL][dA][dF][dA][dF][dW][dA][dR][dR][dR][dR]-NH2) | 1 µM (≈ 1.76 µg/mL) | 1 µM (≈ 1.76 µg/mL) | 1.5 µM | 1.5 μM | 1.7 µM (≈ 2.99 µg/mL) | 1.7 µM (≈ 2.99 µg/mL) | 3.7 µM | 3.7 μM | 0.05
6 | CC(C)C[C@@H](NC(=O)[C@@H](CCCNC(=N)N)NC(=O)[C@@H](CCCNC(=N)N)NC(=O)[C@@H](Cc1c[nH]c2ccccc12)NC(=O)[C@@H](CCCNC(=N)N)NC(=O)[C@H](N)CCCNC(=N)N)C(=O)N[C@H](C)C(=O)N[C@H](Cc1ccccc1)C(=O)N[C@H](C)C(=O)N[C@H](Cc1ccccc1)C(=O)N[C@H](CCCNC(=N)N)C(=O)N[C@H](CCCNC(=N)N)C(N)=O [D-CONGA-ΔA4, rrwrrlafafrr (All D)] (H-[dR][dR][dW][dR][dR][dL][dA][dF][dA][dF][dR][dR]-NH2) | 1.6 µM (≈ 2.7 µg/mL) | 1.6 µM (≈ 2.7 µg/mL) | 2.8 µM | 2.8 μM | 3.2 µM (≈ 5.41 µg/mL) | 3.2 µM (≈ 5.41 µg/mL) | 2.3 µM | 2.3 μM | 0.02
7 | CC(C)C[C@@H](NC(=O)[C@@H](CCCNC(=N)N)NC(=O)[C@@H](CCCNC(=N)N)NC(=O)[C@@H](C)NC(=O)[C@@H](Cc1c[nH]c2ccccc12)NC(=O)[C@@H](CCCNC(=N)N)NC(=O)[C@H](N)CCCNC(=N)N)C(=O)N[C@H](C)C(=O)N[C@H](Cc1ccccc1)C(=O)N[C@H](C)C(=O)N[C@H](Cc1ccccc1)C(=O)N[C@H](CCCNC(=N)N)C(N)=O [D-CONGA-ΔR13, rrwarrlafafr (All D)] (H-[dR][dR][dW][dA][dR][dR][dL][dA][dF][dA][dF][dR]-NH2) | 0.9 µM (≈ 1.44 µg/mL) | 0.9 µM (≈ 1.44 µg/mL) | 0.6 µM | 0.6 μM | 27.1 µM (≈ 43.5 µg/mL) | 27 µM (≈ 43.3 µg/mL) | >30 µM | 30 μM | 0.03
8 | CC(C)C[C@@H](NC(=O)[C@@H](CCCCNC(=N)N)NC(=O)[C@@H](CCCCNC(=N)N)NC(=O)[C@@H](C)NC(=O)[C@@H](Cc1c[nH]c2ccccc12)NC(=O)[C@@H](CCCNC(=N)N)NC(=O)[C@H](N)CCCNC(=N)N)C(=O)N[C@H](C)C(=O)N[C@H](Cc1ccccc1)C(=O)N[C@H](C)C(=O)N[C@H](Cc1ccccc1)C(=O)N[C@H](CCCNC(=N)N)C(=O)N[C@H](CCCNC(=N)N)C(N)=O [D-CONGA-HomoR, rrwa (homo r, homo r)lafafrr] (H-[dR][dR][dW][dA][d(hArg)][d(hArg)][dL][dA][dF][dA][dF][dR][dR]-NH2) | 1.3 µM (≈ 2.33 µg/mL) | 1.3 µM (≈ 2.33 µg/mL) | 2.2 µM | 2.2 μM | 1.7 µM (≈ 3.04 µg/mL) | 1.7 µM (≈ 3.04 µg/mL) | 2.5 µM | 2.5 μM | 0.06
